Data reported in patent US12540136B2, “Pyrrolopyridine derivative and use thereof” (ST PHARM CO., LTD., priority 2020, dated 2026).
Read-outs that look alike come from different tables or passages of the source.

Legend:
Type in all cases: cell-based
[1] = Cytotoxicity, MTS dye reduction assay; settings: human; MT-4 cells, MTS dye reduction, 6 days incubation; read-out: CC50, HIV-1(NL4-3) in MT-4 Cells
Procedure: (§1) In order to determine the HIV-1 (Wild type) inhibitory effect of compounds of the present invention, a test was conducted as follows. The host cell was MT-4 cells and the virus strain was NL4-3 strain of HIV-1. The virus and cells were mixed in the presence of the compounds of the present invention, followed by incubation for 6 days. The antiviral effect was measured as a percentage decrease in viral cytopathic effect (CPE), and the cytotoxicity of the compounds was evaluated by MTS (CellTiter® 96 Reagent, Promega, Madison WI) dye reduction assay. 1.

[2] = tested on: HIV-1 (NL4-3); assay: HIV-1 (wild type) inhibitory effect, decrease in viral cytopathic effect (CPE) in MT-4 cells; settings: Human immunodeficiency virus 1, NL43, MT4, 144 h; NL4-3 strain, MT-4 host cells, 6 days incubation, CPE reduction
Procedure: as §1

[3] = tested on: MT-4 cells; assay: Cytotoxicity, MTS dye reduction assay
Procedure: as §1

Structure (SMILES) | CC50 at 6 days [1] | EC50 [2] | CC50 [3] | CC50 ([3]; MT-4 cells, MTS dye reduction, 6 days incubation, read-out: CC50, HIV-1(NL4-3) in MT-4 Cells)
CCCCCCCCCCCCCOC(=O)[C@@H](OC(C)(C)C)c1c(C)nc2c(c(C)c(C)n2Cc2cnn(C)c2)c1-c1ccc(Cl)cc1 [Example 1, Tridecyl (S)-2-(tert-butoxy)-2-(4-(4-chlorophenyl)-2,3,6-trimethyl-1-((1-methyl-1H-pyrazol-4-yl)methyl)-1H-pyrrolo[2,3-b]pyridin-5-yl)acetate] | > 10 µM | > 10 µM |  | 
Cc1nc2c(c(C)c(C)n2Cc2cnn(C)c2)c(-c2ccc(Cl)cc2)c1[C@H](OC(C)(C)C)C(=O)NO [Example 11, (S)-2-(tert-butoxy)-2-(4-(4-chlorophenyl)-2,3,6-trimethyl-1-((1-methyl-1H-pyrazol-4-yl)methyl)-1H-pyrrolo[2,3-b]pyridin-5-yl)-N-hydroxyacetamide] | 3.16 µM |  |  | 
Cc1nc2c(c(C)c(C)n2Cc2cnn(C)c2)c(-c2ccc(Cl)cc2)c1[C@H](OC(C)(C)C)C(=O)OCc1oc(=O)oc1C [Example 4, (5-Methyl-2-oxo-1,3-dioxol-4-yl)methyl (S)-2-(tert-butoxy)-2-(4-(4-chlorophenyl)-2,3,6-trimethyl-1-((1-methyl-1H-pyrazol-4-yl)methyl)-1H-pyrrolo[2,3-b]pyridin-5-yl)acetate] | > 10 µM | 0.00527 µM |  | 
CONC(=O)[C@@H](OC(C)(C)C)c1c(C)nc2c(c(C)c(C)n2Cc2cnn(C)c2)c1-c1ccc(Cl)cc1 [Example 9, (S)-2-(tert-butoxy)-2-(4-(4-chlorophenyl)-2,3,6-trimethyl-1-((1-methyl-1H-pyrazol-4-yl)methyl)-1H-pyrrolo[2,3-b]pyridin-5-yl)-N-methoxyacetamide] | 8.89 µM |  |  | 
Cc1nc2c(c(C)c(C)n2Cc2cnn(C)c2)c(-c2ccc(Cl)cc2)c1[C@H](OC(C)(C)C)c1nnn[nH]1 [Example 7, (S)-5-(tert-butoxy(1H-tetrazol-5-yl)methyl)-4-(4-chlorophenyl)-2,3,6-trimethyl-1-((1-methyl-1H-pyrazol-4-yl)methyl)-1H-pyrrolo[2,3-b]pyridine] | > 10 µM | 0.361 µM |  | 
CNC(=O)[C@@H](OC(C)(C)C)c1c(C)nc2c(c(C)c(C)n2Cc2cnn(C)c2)c1-c1ccc(Cl)cc1 [Example 8, (S)-2-(tert-butoxy)-2-(4-(4-chlorophenyl)-2,3,6-trimethyl-1-((1-methyl-1H-pyrazol-4-yl)methyl)-1H-pyrrolo[2,3-b]pyridin-5-yl)-N-methylacetamide] | 4.98 µM |  |  | 
COC(=O)OCOC(=O)[C@@H](OC(C)(C)C)c1c(C)nc2c(c(C)c(C)n2Cc2cnn(C)c2)c1-c1ccc(Cl)cc1 [Example 15, ((Methoxycarbonyl)oxy)methyl (S)-2-(tert-butoxy)-2-(4-(4-chlorophenyl)-2,3,6-trimethyl-1-((1-methyl-1H-pyrazol-4-yl)methyl)-1H-pyrrolo[2,3-b]pyridin-5-yl)acetate] | > 10 µM | 0.0316 µM |  | 
Cc1nc2c(c(C)c(C)n2CC2CCO2)c(-c2ccc(Cl)cc2)c1[C@H](OC(C)(C)C)C(=O)OCc1oc(=O)oc1C (stereo partly drawn) [Example 2, (5-Methyl-2-oxo-1,3-dioxol-4-yl)methyl (2S)-2-(tert-butoxy)-2-(4-(4-chlorophenyl)-2,3,6-trimethyl-1-(oxetan-2-ylmethyl)-1H-pyrrolo[2,3-b]pyridin-5-yl)acetate] | > 10 µM | 0.12 µM |  | 
Cc1nc2c(c(C)c(C)n2Cc2cnn(C)c2)c(-c2ccc(Cl)cc2)c1[C@H](OC(C)(C)C)C(=O)Nc1nn[nH]n1 [Example 14, (S)-2-(tert-butoxy)-2-(4-(4-chlorophenyl)-2,3,6-trimethyl-1-((1-methyl-1H-pyrazol-4-yl)methyl)-1H-pyrrolo[2,3-b]pyridin-5-yl)-N-(2H-tetrazol-5-yl)acetamide] | > 10 µM | > 10 µM |  | 
Cc1nc([C@@H](OC(C)(C)C)c2c(C)nc3c(c(C)c(C)n3Cc3cnn(C)c3)c2-c2ccc(Cl)cc2)no1 [Example 13, (S)-3-(tert-butoxy (4-(4-chlorophenyl)-2,3,6-trimethyl-1-((1-methyl-1-1H-pyrazol-4-yl)methyl)-1H-pyrrolo[2,3-b]pyridin-5-yl)methyl)-5-methyl-1,2,4-oxadiazole] |  |  | > 10 µM | 
Cc1nc2c(c(C)c(C)n2Cc2cnn(C)c2)c(-c2ccc(Cl)cc2)c1[C@H](OC(C)(C)C)/C(N)=N/O [Example 12, (S,Z)-2-(tert-butoxy)-2-(4-(4-chlorophenyl)-2,3,6-trimethyl-1-((1-methyl-1H-pyrazol-4-yl)methyl)-1H-pyrrole[2,3-b]pyridin-5-yl)-N′-hydroxyacetimidamide] |  |  |  | > 10 µM
Cc1nc2c(c(C)c(C)n2Cc2cnn(C)c2)c(-c2ccc(Cl)cc2)c1[C@H](OC(C)(C)C)C(N)=O [Example 5, (S)-2-(tert-butoxy)-2-(4-(4-chlorophenyl)-2,3,6-trimethyl-1-((1-methyl-1H-pyrazol-4-yl)methyl)-1H-pyrrolo[2,3-b]pyridin-5-yl)acetamide] | > 10 µM | > 10 µM |  | 
Cc1nc2c(c(C)c(C)n2Cc2cnn(C)c2)c(-c2ccc(Cl)cc2)c1[C@@H](C#N)OC(C)(C)C [Example 6, (S)-2-(tert-butoxy)-2-(4-(4-chlorophenyl)-2,3,6-trimethyl-1-((1-methyl-1H-pyrazol-4-yl)methyl)-1H-pyrrolo[2,3-b]pyridin-5-yl)acetonitrile] | > 10 µM | > 10 µM |  | 
COCCOCCOC(=O)[C@@H](OC(C)(C)C)c1c(C)nc2c(c(C)c(C)n2Cc2cnn(C)c2)c1-c1ccc(Cl)cc1 [Example 16, 2-(2-Methoxyethoxy)ethyl (S)-2-(tert-butoxy)-2-(4-(4-chlorophenyl)-2,3,6-trimethyl-1-((1-methyl-1H-pyrazol-4-yl)methyl)-1H-pyrrolo[2,3-b]pyridin-5-yl)acetate] | > 10 µM | > 10 µM |  | 
CON(C)C(=O)[C@@H](OC(C)(C)C)c1c(C)nc2c(c(C)c(C)n2Cc2cnn(C)c2)c1-c1ccc(Cl)cc1 [Example 10, (S)-2-(tert-butoxy)-2-(4-(4-chlorophenyl)-2,3,6-trimethyl-1-((1-methyl-1H-pyrazol-4-yl)methyl)-1H-pyrrolo[2,3-b]pyridin-5-yl)-N-methoxy-N-methylacetamide] | > 10 µM | > 10 µM |  | 
COCCn1c(C)c(C)c2c(-c3ccc(Cl)cc3)c([C@H](OC(C)(C)C)C(=O)OCc3oc(=O)oc3C)c(C)nc21 [Example 3, (5-Methyl-2-oxo-1,3-dioxol-4-yl)methyl (S)-2-(tert-butoxy)-2-(4-(4-chlorophenyl)-1-(2-methoxyethyl)-2,3,6-trimethyl-1H-pyrrolo[2,3-b]pyridin-5-yl)acetate] | > 10 µM | 0.0227 µM |  | 
